Experimental data as given in patent publication US20250235543A1, “MODIFIED PROTEINS AND PROTEIN DEGRADERS” (Cullgen (Shanghai), Inc., priority 2021, published 2025).
Like-named read-outs stand apart in the source and are kept apart here.

How the values were obtained:
cyclin D1 = test: Cyclin D1 percentage degradation in Calu-1 cells (immunoblotting); assay type: cell-based; details: 16 hours
Procedure, shortened: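 Cyclin D1 degradation was assessed by western blot. Clarified lysates, obtained by RIPA lysis with inhibitors and centrifugation at 13,000 rpm, were normalized by BCA protein assay and separated by SDS-PAGE. Bands were detected with Western ECL Substrate on a Bio-Rad ChemiDoc MP Imaging system and quantified in Image Lab software to derive percentage degradation.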

CDK4 = target: T1, CDK4 (Homo sapiens, UniProt P11802); test: CDK4 percentage degradation in Calu-1 cells (immunoblotting); assay type: cell-based; details: for inhibition at 0.2 µM: read-out: CDK4 Degradation (200 nM); for inhibition at 10 µM: read-out: CDK4 Degradation (10 μM)
T1 construct: endogenous in cells; host or cells: Calu-1
Procedure, shortened: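 CDK4 degradation was measured by immunoblotting. Cells were washed in cold PBS and lysed in RIPA buffer with inhibitors for 30 min at 4° C., then spun at 13,000 rpm to clear. After BCA protein determination, lysates were heated at 99° C. for 5 min in Laemmli buffer, resolved on SDS-PAGE, imaged on a ChemiDoc MP with ECL substrate, and band intensities quantified.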

T1 sequence (P11802 2-303 limits assumed): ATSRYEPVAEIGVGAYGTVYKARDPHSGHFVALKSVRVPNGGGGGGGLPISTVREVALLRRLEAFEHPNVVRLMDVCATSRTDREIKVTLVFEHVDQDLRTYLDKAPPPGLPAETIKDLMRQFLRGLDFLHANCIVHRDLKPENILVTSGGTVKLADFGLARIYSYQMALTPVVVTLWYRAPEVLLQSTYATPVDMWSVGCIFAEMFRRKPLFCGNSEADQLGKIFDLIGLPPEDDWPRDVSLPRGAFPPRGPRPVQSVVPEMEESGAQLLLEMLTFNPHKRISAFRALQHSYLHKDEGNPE
T1 sequence (P24385 whole entry partner): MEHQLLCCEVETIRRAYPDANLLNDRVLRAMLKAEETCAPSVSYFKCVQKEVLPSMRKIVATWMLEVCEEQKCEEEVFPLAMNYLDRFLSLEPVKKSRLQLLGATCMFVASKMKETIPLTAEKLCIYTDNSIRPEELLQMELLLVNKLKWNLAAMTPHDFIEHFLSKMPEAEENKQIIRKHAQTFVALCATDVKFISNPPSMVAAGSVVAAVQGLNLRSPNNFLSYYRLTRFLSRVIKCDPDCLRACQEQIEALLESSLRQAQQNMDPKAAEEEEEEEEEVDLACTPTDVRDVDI
T1 sequence (Q16531 2-1140 limits assumed, further chain): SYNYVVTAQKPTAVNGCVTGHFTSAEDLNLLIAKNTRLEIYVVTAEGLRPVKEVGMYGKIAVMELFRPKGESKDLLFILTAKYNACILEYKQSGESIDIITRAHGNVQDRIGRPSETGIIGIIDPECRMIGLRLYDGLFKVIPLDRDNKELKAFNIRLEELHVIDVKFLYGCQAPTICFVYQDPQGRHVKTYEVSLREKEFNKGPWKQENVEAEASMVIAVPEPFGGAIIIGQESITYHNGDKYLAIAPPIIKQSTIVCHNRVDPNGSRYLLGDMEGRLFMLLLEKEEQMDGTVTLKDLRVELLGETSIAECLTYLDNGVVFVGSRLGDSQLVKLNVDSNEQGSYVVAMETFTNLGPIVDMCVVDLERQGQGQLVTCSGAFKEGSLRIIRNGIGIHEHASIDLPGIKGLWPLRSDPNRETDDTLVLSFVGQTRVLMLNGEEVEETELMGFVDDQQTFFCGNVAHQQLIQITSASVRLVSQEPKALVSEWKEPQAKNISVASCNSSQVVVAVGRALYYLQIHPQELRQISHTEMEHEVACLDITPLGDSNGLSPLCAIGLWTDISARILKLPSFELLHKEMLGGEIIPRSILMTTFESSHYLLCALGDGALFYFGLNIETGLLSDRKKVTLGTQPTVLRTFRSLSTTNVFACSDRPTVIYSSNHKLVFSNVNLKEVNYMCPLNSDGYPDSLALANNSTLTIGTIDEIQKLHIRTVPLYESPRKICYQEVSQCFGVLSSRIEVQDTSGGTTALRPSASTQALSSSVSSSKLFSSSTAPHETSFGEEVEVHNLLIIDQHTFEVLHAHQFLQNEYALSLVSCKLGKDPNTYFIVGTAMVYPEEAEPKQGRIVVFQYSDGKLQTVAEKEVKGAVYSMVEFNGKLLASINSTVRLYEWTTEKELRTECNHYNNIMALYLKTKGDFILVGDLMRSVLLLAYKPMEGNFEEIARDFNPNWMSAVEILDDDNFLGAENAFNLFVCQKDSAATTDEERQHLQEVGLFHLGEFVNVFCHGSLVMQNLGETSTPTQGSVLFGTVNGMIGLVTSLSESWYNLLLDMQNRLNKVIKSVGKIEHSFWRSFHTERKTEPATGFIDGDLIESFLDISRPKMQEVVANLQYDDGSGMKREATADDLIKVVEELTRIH

Row | inhibition at 0.2 µM (CDK4; Calu-1 cells, 200 nM, 16 hours) | inhibition at 10 µM (CDK4; Calu-1 cells, 16 hours) | SMILES | CyclinD1 Degradation (200 nM) (cyclin D1) | inhibition at 0.2 µM (CDK4; Calu-1, 16 h) | CyclinD1 Degradation (10 μM) (cyclin D1)
1 | < 30% |  | CC(=O)c1c(C)c2cnc(Nc3ccc(N4CCN(CC(=O)NCCOCCOCCOCCOCCOCCNc5ccc(C(=O)Nc6ncc(-c7ccccc7)s6)c(C)c5)CC4)cn3)nc2n(C2CCCC2)c1=O [CPD-001, 4-((1-(4-(6-((6-Acetyl-8-cyclopentyl-5-methyl-7-oxo-7,8-dihydropyrido[2,3-d]pyrimidin-2-yl)amino)pyridin-3-yl)piperazin-1-yl)-2-oxo-6,9,12,15,18-pentaoxa-3-azaicosan-20-yl)amino)-2-methyl-N-(5-phenylthiazol-2-yl)benzamide] | D (protein percentage degradation <30%) |  | 
2 | 30 to 50% |  | CC(=O)c1c(C)c2cnc(Nc3ccc(N4CCN(CC(=O)NCCOCCOCCOCCNC(=O)CNc5ccc(C(=O)Nc6ncc(C)s6)c(C)c5)CC4)cn3)nc2n(C2CCCC2)c1=O [CPD-018, 4-((17-(4-(6-((6-Acetyl-8-cyclopentyl-5-methyl-7-oxo-7,8-dihydropyrido[2,3-d]pyrimidin-2-yl)amino)pyridin-3-yl)piperazin-1-yl)-2,16-dioxo-6,9,12-trioxa-3,15-diazaheptadecyl)amino)-2-methyl-N-(5-methylthiazol-2-yl)benzamide] | C (protein percentage degradation <50%, and >=30%) |  | 
3 | < 30% |  | CC(=O)c1c(C)c2cnc(Nc3ccc(N4CCN(CC(=O)NCCOCCOCCNC(=O)c5ccc(C(=O)Nc6ncc(C)s6)c(C)c5)CC4)cn3)nc2n(C2CCCC2)c1=O [CPD-010, N^4-(2-(2-(2-(2-(4-(6-((6-Acetyl-8-cyclopentyl-5-methyl-7-oxo-7,8-dihydropyrido[2,3-d]pyrimidin-2-yl)amino)pyridin-3-yl)piperazin-1-yl)acetamido)ethoxy)ethoxy)ethyl)-2-methyl-N^1-(5-methylthiazol-2-yl)terephthalamide] | D (protein percentage degradation <30%) |  | 
4 | > 80% |  | CNc1ccc(C(=O)Nc2ccc(C)cn2)c(NC(=O)CCOCCOCCNC(=O)CN2CCN(c3ccc(Nc4ncc5c(C)c(C(C)=O)c(=O)n(C6CCCC6)c5n4)nc3)CC2)c1 [CPD-339, 2-(3-(2-(2-(2-(4-(6-((6-Acetyl-8-cyclopentyl-5-methyl-7-oxo-7,8-dihydropyrido[2,3-d]pyrimidin-2-yl)amino)pyridin-3-yl)piperazin-1-yl)acetamido)ethoxy)ethoxy)propanamido)-4-(methylamino)-N-(5-methylpyridin-2-yl)benzamide] | A (protein percentage degradation >=80%) |  | 
5 | 50 to 80% |  | CC(=O)c1c(C)c2cnc(Nc3ccc(N4CCN(CC(=O)NCCOCCOCCC(=O)Nc5cc(Br)ccc5C(=O)Nc5nc(C)c(C)s5)CC4)cn3)nc2n(C2CCCC2)c1=O [CPD-144, 2-(3-(2-(2-(2-(4-(6-((6-Acetyl-8-cyclopentyl-5-methyl-7-oxo-7,8-dihydropyrido[2,3-d]pyrimidin-2-yl)amino)pyridin-3-yl)piperazin-1-yl)acetamido)ethoxy)ethoxy)propanamido)-4-bromo-N-(4,5-dimethylthiazol-2-yl)benzamide] | A (protein percentage degradation >=80%) |  | 
6 | < 30% |  | CC(=O)c1c(C)c2cnc(Nc3ccc(N4CCN(CC(=O)NCCCCCNC(=O)CNc5ccc(C(=O)Nc6ncc(C)s6)c(C)c5)CC4)cn3)nc2n(C2CCCC2)c1=O [CPD-015, 4-((2-((5-(2-(4-(6-((6-Acetyl-8-cyclopentyl-5-methyl-7-oxo-7,8-dihydropyrido[2,3-d]pyrimidin-2-yl)amino)pyridin-3-yl)piperazin-1-yl)acetamido)pentyl)amino)-2-oxoethyl)amino)-2-methyl-N-(5-methylthiazol-2-yl)benzamide] | D (protein percentage degradation <30%) |  | 

Continued, molecule first:

Row | SMILES | inhibition at 0.2 µM (CDK4; Calu-1 cells, 200 nM, 16 hours) | inhibition at 10 µM (CDK4; Calu-1 cells, 16 hours) | CyclinD1 Degradation (200 nM) (cyclin D1) | inhibition at 0.2 µM (CDK4; Calu-1, 16 h) | CyclinD1 Degradation (10 μM) (cyclin D1)
7 | CC(=O)c1c(C)c2cnc(Nc3ccc(N4CCN(CC(=O)NCCOCCOCCC(=O)Nc5cc6c(cc5C(=O)Nc5ccc(C)cn5)CCCN6)CC4)cn3)nc2n(C2CCCC2)c1=O [CPD-358, 7-(3-(2-(2-(2-(4-(6-((6-Acetyl-8-cyclopentyl-5-methyl-7-oxo-7,8-dihydropyrido[2,3-d]pyrimidin-2-yl)amino)pyridin-3-yl)piperazin-1-yl)acetamido)ethoxy)ethoxy)propanamido)-N-(5-methylpyridin-2-yl)-1,2,3,4-tetrahydroquinoline-6-carboxamide] | 50 to 80% |  | A (protein percentage degradation >=80%) |  | 
8 | CC(=O)c1c(C)c2cnc(Nc3ccc(N4CCN(CC(=O)NCCCCCNC(=O)c5ccc(C(=O)Nc6ncc(C)s6)c(C)c5)CC4)cn3)nc2n(C2CCCC2)c1=O [CPD-009, N^4-(5-(2-(4-(6-((6-Acetyl-8-cyclopentyl-5-methyl-7-oxo-7,8-dihydropyrido[2,3-d]pyrimidin-2-yl)amino)pyridin-3-yl)piperazin-1-yl)acetamido)pentyl)-2-methyl-N^1-(5-methylthiazol-2-yl)terephthalamide] | < 30% |  | D (protein percentage degradation <30%) |  | 
9 | CC(=O)c1c(C)c2cnc(Nc3ccc(N4CCN(CC(=O)NCCCCCCCCNc5cccc(C(=O)Nc6nc(C)c(C)s6)c5C)CC4)cn3)nc2n(C2CCCC2)c1=O [CPD-090, 3-((8-(2-(4-(6-((6-Acetyl-8-cyclopentyl-5-methyl-7-oxo-7,8-dihydropyrido[2,3-d]pyrimidin-2-yl)amino)pyridin-3-yl)piperazin-1-yl)acetamido)octyl)amino)-N-(4,5-dimethylthiazol-2-yl)-2-methylbenzamide] | 50 to 80% |  | A (protein percentage degradation >=80%) |  | 
10 | CC(=O)c1c(C)c2cnc(Nc3ccc(N4CCN(CCNCCOCCOCCC(=O)Nc5ccccc5C(=O)Nc5nc(C)c(C)s5)CC4)cn3)nc2n(C2CCCC2)c1=O [CPD-187, 2-(3-(2-(2-((2-(4-(6-((6-Acetyl-8-cyclopentyl-5-methyl-7-oxo-7,8-dihydropyrido[2,3-d]pyrimidin-2-yl)amino)pyridin-3-yl)piperazin-1-yl)ethyl)amino)ethoxy)ethoxy)propanamido)-N-(4,5-dimethylthiazol-2-yl)benzamide] |  |  | D (protein percentage degradation <30%) | < 30% | 
11 | CC(=O)c1c(C)c2cnc(Nc3ccc(N4CCN(C(=O)CCOCCOCCOCCOCCOCCOCCNc5ccc(C)c(C(=O)Nc6nc(C)c(C)s6)c5)CC4)cn3)nc2n(C2CCCC2)c1=O [CPD-131, 5-((21-(4-(6-((6-Acetyl-8-cyclopentyl-5-methyl-7-oxo-7,8-dihydropyrido[2,3-d]pyrimidin-2-yl)amino)pyridin-3-yl)piperazin-1-yl)-21-oxo-3,6,9,12,15,18-hexaoxahenicosyl)amino)-N-(4,5-dimethylthiazol-2-yl)-2-methylbenzamide] |  |  | D (protein percentage degradation <30%) | < 30% | 
12 | Cc1nc(NC(=O)c2ccccc2NC(=O)CCNC(=O)CN2CCN(c3ccc(Nc4ncc5cc(C(=O)N(C)C)n(C6CCCC6)c5n4)nc3)CC2)sc1C [CPD-287, 7-Cyclopentyl-2-((5-(4-(2-((3-((2-((4,5-dimethylthiazol-2-yl)carbamoyl)phenyl)amino)-3-oxopropyl)amino)-2-oxoethyl)piperazin-1-yl)pyridin-2-yl)amino)-N,N-dimethyl-7H-pyrrolo[2,3-d]pyrimidine-6-carboxamide] |  | 30 to 50% |  |  | A (protein percentage degradation >= 80%)
13 | COc1ccc(NC(=O)c2ccccc2NC(=O)COCCO[C@H]2CC[C@H](NC(=O)CN3CCN(c4ccc(Nc5ncc6c(C)c(C(C)=O)c(=O)n(C7CCCC7)c6n5)nc4)CC3)CC2)nn1 [CPD-366, 2-(2-(2-((trans-4-(2-(4-(6-((6-Acetyl-8-cyclopentyl-5-methyl-7-oxo-7,8-dihydropyrido[2,3-d]pyrimidin-2-yl)amino)pyridin-3-yl)piperazin-1-yl)acetamido)cyclohexyl)oxy)ethoxy)acetamido)-N-(6-methoxypyridazin-3-yl)benzamide] | < 30% |  | D (protein percentage degradation <30%) |  | 
14 | CC(=O)c1c(C)c2cnc(Nc3ccc(N4CCN(C(=O)CCOCCOCCOCCOCCNc5cccc(C(=O)Nc6nc(C)c(C)s6)c5C)CC4)cn3)nc2n(C2CCCC2)c1=O [CPD-123, 3-((15-(4-(6-((6-Acetyl-8-cyclopentyl-5-methyl-7-oxo-7,8-dihydropyrido[2,3-d]pyrimidin-2-yl)amino)pyridin-3-yl)piperazin-1-yl)-15-oxo-3,6,9,12-tetraoxapentadecyl)amino)-N-(4,5-dimethylthiazol-2-yl)-2-methylbenzamide] |  |  | A (protein percentage degradation >=80%) | 50 to 80% | 
15 | Cc1nc(NC(=O)c2ccccc2NC(=O)CCCCCCCCNC(=O)CN2CCN(c3ccc(Nc4ncc5cc(C(=O)N(C)C)n(C6CCCC6)c5n4)nc3)CC2)sc1C [CPD-293, 7-Cyclopentyl-2-((5-(4-(2-((9-((2-((4,5-dimethylthiazol-2-yl)carbamoyl)phenyl)amino)-9-oxononyl)amino)-2-oxoethyl)piperazin-1-yl)pyridin-2-yl)amino)-N,N-dimethyl-7H-pyrrolo[2,3-d]pyrimidine-6-carboxamide] |  | 50 to 80% |  |  | A (protein percentage degradation >= 80%)
